From patent EP4817611A1, “PHARMACEUTICAL COMPOSITION” (EA Pharma Co., Ltd., priority 2023, dated 2025)

Tests used:
[1] = One-month stability test in sealed glass vial under three storage conditions; decomposition product 1 by HPLC; assay type: physicochemical; conditions: Compound (2) HCl 62.5 mg + acidic substance 62.5 mg
Procedure: When the hydrochloride of the compound represented by the formula (2) (hereinafter referred to as "Compound (2) HCl") is decomposed, the following decomposition products 1 and 2 are produced. [drawing 9]
The amount of the decomposition product 1 produced was measured over time by HPLC to evaluate the stability of the pharmaceutical composition. The HPLC analysis conditions are as follows. When airtight conditions were employed in the stability test, aluminum packaging was used.
• Detector: UV absorption photometer (measurement wavelength: 256 nm) • Column: InertSustain AQ-C18 HP 3 µm, 3.0 × 150 mm (reverse-phase C18 column) • Column temperature: a constant temperature around 25°C • Mobile phase A: 50 mmol/L ammonium formate buffer solution (pH: 4) • Mobile phase B: 50 mmol/L ammonium formate buffer solution (pH: 4) : acetonitrile = 1:4 • Flow rate: 1.0 ml/min
• Time: 0 → 20 • Mobile phase A (%): 95 → 0 • Mobile phase B (%): 5 → 100
The formulation in Table 5-1 (the types of acidic substances are listed in Table 5-2) was mixed in a mortar to prepare a pharmaceutical composition, which was then sealed in a glass vial, and a one-month stability test was performed under three storage conditions (airtight conditions at 4°C, airtight conditions at 60°C, and open conditions at 60°C). As a reference example, a stability test was also performed on the active ingredient alone (without an acidic substance).

[2] = recorded in the Chemical Book; cited from earlier work

Structure (SMILES)	Content of decomposition product 1 (%) (4°C, airtight) ([1]; 4°C, airtight, glass vial)	Content of decomposition product 1 (%) (60°C, airtight) ([1]; 60°C, airtight, glass vial)	Content of decomposition product 1 (%) (60°C, open, 75% RH) ([1]; 60°C, open, 75% RH)	pKa [2]
CC(C)(Cc1ccc(C(=O)Oc2ccc(C(=N)N)cc2F)s1)C(=O)O [Reference example]	0.03	0.05	0.10	–
N[C@@H](CC(=O)O)C(=O)O [aspartic acid]	–	–	–	1.99
